The source of these data is patent US11186587B2, “Compound as ACC inhibitor and use thereof” (NANJING SANHOME PHARMACEUTICAL CO., LTD., priority 2017, dated 2021).

Read-outs that look alike come from different tables or passages of the source.

The nature of data set [1]: Evaluation of compound distribution in rat liver. The data set is classed as in vivo. To be noted: male SD rats, single oral 3 mg/kg, 0.25 h after administration. As for the experimental part:
An acclimation period of 2-3 days was given before the experiments. The rats were fasted for 8-12 h before administration, supplied with water 2 h after administration and foods 4 h after administration.
6 mg of the test compound (based on free base) was weighed and added to 20 mL of ethanol-PEG400-saline (10:30:60). The mixture was vortexed for 2 min, and sonicated for 3 min, and then used to prepare a solution of test sample solution with a concentration of 0.3 mg/mL for oral administration. 100 μL of the test sample solution was volumed to 10 ng/mL with methanol, and a control sample of the same concentration was prepared. The concentrations of the test sample and control sample were detected by HPLC, and the accuracy was calculated.
SD rats were given a single oral administration of 3 mg/kg of test compound at a dose of 10 mL/kg. The rats were bled in femoral artery and ruptured in neck 0.25 h after administration. The liver and blood samples (anticoagulation with heparin sodium) were collected immediately, and placed on ice.
The homogenate was centrifuged (centrifugation conditions: 8000 rpm/min, 5 min, 4° C.). The supernatant was transferred and subjected to cryopreservation. The supernatant was thawed and centrifuged before injection, and the supernatant was collected and subjected to LC-MS/MS for analyzing the content of the compound in the supernatant sample.
The collected whole blood sample was placed on ice and centrifuged within 30 min (centrifugation conditions: 8000 rpm/min, 5 min, 4° C.). 100 μL of the upper layer of plasma was transferred, and precipitated with 300 μL of methanol. The mixture was shaken and centrifuged, and diluted with mobile phase. The supernatant was collected and subjected to LC-MS/MS for analyzing the content of the compound in the supernatant sample.

In data set [2] the test system is Col1A1 gene expression in TGF-β1-induced LX-2 cells. Description: Inhibition of human hepatic stellate cells LX-2 activation in vitro (Col1A1 gene expression, real-time PCR). The data set is classed as cell-based. The settings on record: TGFβ1 10 ng/mL, 24 h drug treatment, compound concentration of the tabulated value not stated (30, 10, 3 μM prepared). Here is the method: The compounds of the present disclosure prepared in the above examples and the control compound were respectively formulated into 60 mM with DMSO for use.
DMSO stock solution of the compounds of the examples of the present disclosure and the control compound were sequentially diluted with culture medium to 30 μM, 10 μM, and 3 μM. TGF-β1 was dissolved to […] with 10 mM citric acid buffer in the kit (PeproTech) according to the instructions, ready for use.
LX-2 cells were inoculated into a 6-well culture plate at a density of 2×10^5 cells/mL after cell passage. Each well contained 2 mL DMEM with 10% FBS. The cells were cultured at 37° C. in a 5% CO2 incubator, which was recorded as Day 1. After 24 h (Day 2), the cell confluence reached 70-80%, the old culture medium was discarded, and the serum-free DMEM was used to treat the cells as low serum starvation. The old culture medium was discarded at Day 3, and the culture medium or the culture medium containing different concentrations of the drug was added for continuing culture. There were control group (serum-free DMEM culture medium), TGFβ1 group, TGFβ1+ compound group. The TGFβ1 working concentration was 10 ng/mL. 24 h after the drug treatment (Day 4), the cell medium was discarded and the cells were washed once with precooled 1×PBS and then subjected to total RNA extraction.
2.3.1 Sample pretreatment: 1 mL of TransZOL Up reagent was added to each well of the 6-well plate, and the well plate was placed horizontally for a while to let the lysis buffer evenly spread on the cell surface and lyse the cells. The cells were blown with a pipette to make the cells completely detached. The lysate was transferred to a 2 mL RNase free centrifuge tube and repeatedly blown and sucked until no significant pieces in the lysate.
The extracted RNA was diluted to a concentration of 0.1 μg-0.5 μg (Total RNA ≤1 μg) based on the same mass. The total RNA in the reverse transcription system of each sample in the experiment was about 500 ng.
Two replicates were set for each sample, and the relative expression of the target gene was calculated by the program in the PCR machine.
The threshold of the Real Time PCR result was automatically set by the Real Time PCR detector system. The relative expression of the Col1A1 gene was calculated as follows. ΔCt (Col1A1 in drug treatment group)=Avg. Ct (Col1A1 in drug treatment group)−Avg. Ct (GAPDH in drug treatment group) ΔCt (Col1A1 in TGF group)=Avg. Ct (Col1A1 in TGF group)−Avg. Ct (GAPDH in TGF group) ΔCt (Col1A1 in Control group)=Avg. Ct (Col1A1 in Control group)−Avg. Ct (GAPDH in Control group) ΔΔCt=Average value of ΔCt (Col1A1 in TGF group/drug treatment group)−ΔCt (Col1A1 in Control group)
Formula for calculating the relative expression of Col1A1 gene: RQ=^2−ΔΔCt
Relative quantification results were obtained by automatically analysis of ABI 7500 real-time quantitative PCR machine.
For orientation: In qPCR the cycle at which signal appears reflects the starting amount.

The target in data set [3] is ACC2 (Homo sapiens (Human), UniProt O00763). Description: ACC2 enzyme activity assay (ADP-Glo). It counts as biochemical. To be noted: ACC2 enzyme 1.1 nM working solution, room temperature. Here is the method: (§1) Compound preparation: the compounds of the present disclosure prepared in the above examples and the control compound were respectively formulated into 10 mM with DMSO for use.
(§2) Preparation of 1× reaction buffer (pH=7.4): HEPES stock solutions (1 M), MgCl2 (1 M), BRIJ-35 (10%), potassium citrate buffer (1 M), BSA (10 mg/mL) and DTT (500 mM) were formulated to enzyme reaction buffer containing HEPES (50 mM), MgCl2 (2 mM), BRIJ-35 (0.01%), potassium citrate buffer (2 mM), BSA (50 Gg/mL) and DTT (2 mM).
The mixture was incubated at room temperature for 15 min.
(§3) Negative control group: menstruum containing 5% DMSO; positive control group: menstruum containing 100 nM ND-630. The average values of each concentration and the positive and negative controls were calculated, and the standard deviation was calculated. […] The inhibition rate data was fitted by nonlinear regression equation to calculate IC50 of each compound. The nonlinear regression equation was Y=lowest value+(highest value−lowest value)/(1+10^((Log IC50−X)×HillSlope)), among which X is logarithm of the compound concentration and Y is inhibition percent (%).
In general terms: In ADP-Glo the light output rises with the ADP produced.

In data set [4] the target is ACC1 (Homo sapiens (Human), UniProt Q13085). Nature of the data set: ACC1 enzyme activity assay (ADP-Glo). The data set is classed as biochemical. The settings on record: ACC1 enzyme 2 nM working solution, room temperature. Here is the method:
as §1, §2
4.5 μL of 2.2×ACC1 enzyme (2 nM) working solution was added to a 384-well plate; and then 0.5 μL of different concentrations of compound were added. The mixture was incubated at room temperature for 15 min.
as §3

Chain of ACC2 (O00763 whole entry): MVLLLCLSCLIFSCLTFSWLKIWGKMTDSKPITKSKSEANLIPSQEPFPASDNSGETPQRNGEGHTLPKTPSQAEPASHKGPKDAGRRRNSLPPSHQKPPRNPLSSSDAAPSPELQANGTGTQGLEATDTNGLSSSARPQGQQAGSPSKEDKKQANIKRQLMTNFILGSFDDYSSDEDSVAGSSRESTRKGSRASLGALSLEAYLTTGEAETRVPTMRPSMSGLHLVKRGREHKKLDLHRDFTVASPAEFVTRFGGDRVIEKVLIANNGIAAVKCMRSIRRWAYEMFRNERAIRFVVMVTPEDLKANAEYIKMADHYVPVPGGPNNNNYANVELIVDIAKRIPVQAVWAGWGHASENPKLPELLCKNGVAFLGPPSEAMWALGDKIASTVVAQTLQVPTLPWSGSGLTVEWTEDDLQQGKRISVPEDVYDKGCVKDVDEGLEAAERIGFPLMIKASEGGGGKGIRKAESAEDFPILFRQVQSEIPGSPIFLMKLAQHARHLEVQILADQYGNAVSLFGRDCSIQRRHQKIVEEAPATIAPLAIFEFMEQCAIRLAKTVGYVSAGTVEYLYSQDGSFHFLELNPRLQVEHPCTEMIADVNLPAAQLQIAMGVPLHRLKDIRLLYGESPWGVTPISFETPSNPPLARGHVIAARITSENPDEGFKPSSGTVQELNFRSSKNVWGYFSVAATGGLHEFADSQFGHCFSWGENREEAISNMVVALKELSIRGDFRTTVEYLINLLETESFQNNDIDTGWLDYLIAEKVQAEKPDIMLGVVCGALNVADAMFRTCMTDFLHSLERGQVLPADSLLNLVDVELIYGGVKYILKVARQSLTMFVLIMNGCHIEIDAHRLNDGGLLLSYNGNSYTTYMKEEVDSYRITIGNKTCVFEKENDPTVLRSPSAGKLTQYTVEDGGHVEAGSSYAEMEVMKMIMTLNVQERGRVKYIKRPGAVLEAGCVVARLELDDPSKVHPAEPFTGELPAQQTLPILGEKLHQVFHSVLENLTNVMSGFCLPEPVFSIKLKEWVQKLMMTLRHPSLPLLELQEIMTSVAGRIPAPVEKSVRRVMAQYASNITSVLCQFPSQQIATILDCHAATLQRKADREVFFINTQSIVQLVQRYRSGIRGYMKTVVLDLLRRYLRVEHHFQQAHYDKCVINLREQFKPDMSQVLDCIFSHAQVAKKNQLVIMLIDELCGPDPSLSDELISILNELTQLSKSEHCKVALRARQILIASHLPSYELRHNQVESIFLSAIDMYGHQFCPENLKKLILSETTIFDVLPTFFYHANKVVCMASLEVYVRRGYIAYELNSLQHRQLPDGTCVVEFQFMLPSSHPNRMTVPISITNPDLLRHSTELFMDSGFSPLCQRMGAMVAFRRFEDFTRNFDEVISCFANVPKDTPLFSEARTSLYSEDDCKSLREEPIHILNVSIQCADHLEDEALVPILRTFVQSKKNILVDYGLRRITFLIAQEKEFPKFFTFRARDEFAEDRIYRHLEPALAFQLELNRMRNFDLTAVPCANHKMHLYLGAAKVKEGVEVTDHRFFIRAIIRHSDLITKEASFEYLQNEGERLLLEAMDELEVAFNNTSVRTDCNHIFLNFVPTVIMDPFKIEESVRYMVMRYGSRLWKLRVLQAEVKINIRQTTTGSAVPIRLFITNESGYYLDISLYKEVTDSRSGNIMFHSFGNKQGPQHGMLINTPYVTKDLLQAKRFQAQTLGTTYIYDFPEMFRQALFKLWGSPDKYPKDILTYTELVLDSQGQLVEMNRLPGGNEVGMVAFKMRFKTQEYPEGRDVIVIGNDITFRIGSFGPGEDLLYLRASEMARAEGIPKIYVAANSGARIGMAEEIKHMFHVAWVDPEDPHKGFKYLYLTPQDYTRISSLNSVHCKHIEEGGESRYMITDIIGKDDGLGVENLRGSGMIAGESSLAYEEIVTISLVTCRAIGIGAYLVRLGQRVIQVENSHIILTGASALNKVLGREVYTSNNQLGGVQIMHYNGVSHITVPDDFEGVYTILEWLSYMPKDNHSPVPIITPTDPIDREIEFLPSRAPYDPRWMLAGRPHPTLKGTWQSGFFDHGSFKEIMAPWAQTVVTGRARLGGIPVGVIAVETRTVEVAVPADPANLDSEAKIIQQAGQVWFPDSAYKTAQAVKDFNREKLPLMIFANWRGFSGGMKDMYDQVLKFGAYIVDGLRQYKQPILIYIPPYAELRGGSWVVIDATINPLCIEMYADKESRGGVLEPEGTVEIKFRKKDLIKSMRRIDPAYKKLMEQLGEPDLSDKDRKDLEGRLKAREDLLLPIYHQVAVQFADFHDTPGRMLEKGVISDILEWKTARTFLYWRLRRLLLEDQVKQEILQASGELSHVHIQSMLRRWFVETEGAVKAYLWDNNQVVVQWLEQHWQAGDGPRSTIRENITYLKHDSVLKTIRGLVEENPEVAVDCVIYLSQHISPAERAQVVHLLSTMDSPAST

The IC50 is the concentration that gives 50% inhibition. Low values mean greater potency, high ones weaker potency. In the case of `COc1ccccc1[C@H](Cn1c(=O)n([C@H]2C[C@@](C)(C(=O)O)C2)c(=O)c2c(C)c(-c3ncco3)sc21)OC1CCOCC1` [Example 4, (1S,3s)-3-(1-((R)-2-(2-methoxyphenyl)-2-((tetrahydro-2H-pyran-4-yl)oxy)ethyl)-5-methyl-6-(oxazol-2-yl)-2,4-dioxo-1,4-dihydrothieno[2,3-d]pyrimidine-3(2H)-yl)-1-methylcyclobutanecarboxylic Acid], the concentration at 0.25 h in data set [1] (liver, read-out: Concentration in Liver) was found to be 4830 ng/g; in data set [1] (plasma, read-out: Concentration in Plasma), 72.8 ng/mL. In addition, the Kp at 0.25 h in data set [1] (liver/plasma, read-out: Liver/plasma distribution ratio) came out at 67.1. In addition, the “Inhibition rate (%) of relative expression of the Col1A1 gene” value in data set [2] turned out to be 78.54%. Moreover, the IC50 in data set [3] amounted to 3.16 nM; in data set [4], 0.68 nM.
